{"source": "patent EP0400480A1", "about": "“A method for enhancing the cytotoxicity of anthracyclines through photoactivation” (CONSIGLIO NAZIONALE DELLE RICERCHE, priority 1989, dated 1990)", "key": {"[1]": {"test_system": "FRT L5 cells", "assay": "Growth curve (count of vital cells) of FRT L5 cells after 2 hr incubation with or without 595 nm irradiation (Example 1)", "type": "cell-based, Fisher Rat", "conditions": "50 ng/ml, irradiation 595 nm 245 J/cm², curve (f) compared with non-irradiated curve (b)", "experimental": "A culture of Fisher Rat Thyroid cells classified as FRT L5 was performed routinely in Petri dishes in a Ham F-12 medium modified by Coon (K.C. Biological Co.) with addition of 5% calf serum (Grand Island Biological Co.) by incubation at 37°C in an atmosphere with 5% CO₂.\nFor determining the growth curve a suitable number of the colture Petri dishes was trypsinized and the cells were re-suspended in growth medium in such a way as to have a cell concentration of appoximately 10⁶/ml. Suspension volumes containing a number of cells of the order of 10⁵ were poured into dishes of 60 mm diameter and covered with 3 ml culture medium, maintaining the cell suspension under stirring in order to have a uniform cell distribution in the various dishes.\nThe dishes were put in an incubator for 24 hrs and then incubated for 2 hrs with fresh reaction medium containing […] (5-ID).\n5-iminodaunomicin was prepared in a 1.78.10⁻⁵M solution in dejonized bidistilled water and was added to the various dishes in such amounts as to have concentrations of 0,50, 200, 400 and 1000 ng/ml. Incubation of these dishes was performed in the dark while at the same time a dish prepared in the same way and having a 5-iminodaunomicin concentration of 50 ng/ml was incubated under red light radiation of 595 nm wave length. […]"}, "[2]": {"test_system": "FRT L5 cells", "assay": "Cell survival of FRT L5 cells relative to non-irradiated culture after incubation with 595 nm irradiation (Examples 2 and 3)", "type": "cell-based, Fisher Rat", "conditions": "1000 ng/ml", "experimental": "Following the method of Example 1, FRT L5 cells were resuspended, distributed in dishes and incubated for 72 hrs. At this point 5-ID was introduced in the dishes in an amount such as to have a concentration in the medium of 1000 ng/ml and the dishes were incubated for 2 hrs. During this period the various dishes were irradiated with red light of 595 nm with constant radiation density on the dish of an average of 34 mW/cm² for times of from 15 to 120 minutes.\nEach irradiation period was selected so that its termination coincided with the incubation end.\nThe average dose of light administered on the dish in 120 minutes was 245 J/cm².\n2, in which the percentage of cell survival refferred to a non-irradiated culture is represented as a function of the light dose in J/cm².\nExample 2 was repeated, except that each dish was irradiated for only 15 minute during the 2 hr incubation with 5-ID.\nSaid 15 minute irradiations were started with increasing delays with respect to the start of the incubation, and precisely with delays of 0,15, 30, 45, 60, 75, 90 and 105 minutes.\nThe results are reported in figure 3, in which the percentage cell survival, with respect to non- irradiated cultures, is reported as a function of the delay from the irradiation start with respect to the start of the incubation with 5-ID."}}, "data": [{"smiles": "COc1cccc2c1C(=N)c1c(O)c3c(c(O)c1C2=O)C[C@@](O)(C(C)=O)C[C@@H]3O[C@H]1C[C@H](N)[C@H](O)[C@H](C)O1", "note": "[5-ID, 5-iminodaunomicin]", "values": [{"measurement": "lowering the number of vital cell", "setting": "[1]", "value": "one order of magnitude"}, {"measurement": "lethal effect (cell survival referred to a non-irradiated culture)", "setting": "[2]; 2 hr incubation, irradiation 595 nm, 34 mW/cm², short time (ca. 30 minutes)", "value": "high lethal effect"}, {"measurement": "effect of incubation without irradiation", "setting": "[2]; without irradiation, short time, see curve (e) of figure 1", "value": "does not have a measurable effect"}]}]}
